The test system of the experiment is BDF1 mice, colon carcinoma 38 sc, T/C %. Briefly: NCI In Vivo Anticancer Drug Screen. Data for tumor model Colon Carcinoma 38 (subcutaneous) in B6D2F1 (BDF1) mice. Particulars: endpoint: median tumor weight (est.), higher = larger tumour. The essentials: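 Transplantable tumor in mice; compound-treated vs vehicle-dosed controls. Measured survival or tumor size; value = T ÷ C.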

Setting [1] is: dose: 25.0 mg/kg/injection, schedule: Q07DX002 (ip), vehicle: distilled water + Tween-80.
[2] abbreviates: dose: 50.0 mg/kg/injection, schedule: Q07DX002 (ip), vehicle: distilled water + Tween-80.
Where [3] appears, read: dose: 12.5 mg/kg/injection, schedule: Q07DX002 (ip), vehicle: saline with Tween-80.
The mark [4] stands for this setting: dose: 50.0 mg/kg/injection, schedule: Q07DX002 (ip), vehicle: saline with Tween-80.
Where [5] appears, read: dose: 200.0 mg/kg/injection, schedule: Q07DX002 (ip), vehicle: saline with Tween-80.
Where [6] appears, read: dose: 25.0 mg/kg/injection, schedule: Q07DX002 (ip), vehicle: Klucel (hydroxypropylcellulose) (HPC).
[7] abbreviates: dose: 400.0 mg/kg/injection, schedule: Q07DX002 (ip), vehicle: saline with Tween-80.

Values joined by “and” are separate entries in the source; they are usually repeats but may differ in a detail not shown here. Identical values can stand only once. Inconclusive results are not listed. *1 amine or outer side, *2 acyl side, *3 side chain or, on linkers, in order; H or OH if unused. Where a SMILES comes first, the peptide text is derived from it. Bridges are numbered along the chain shown (N, C = ends). Roman numbers before positions name the chains, in order. [ ]: non-standard residue; d: D form. Actinocin(9to1) = Cc1c2oc3c(C)ccc(C(=O)[*:1])c3nc-2c(C(=O)[*:2])c(N)c1=O; aThr = C[C@H](O)[C@H](N)C(=O)O; NMeV = CN[C@H](C(=O)O)C(C)C; Sar = CNCC(=O)O

For the compound `CCc1nc(N)nc(N)c1-c1ccc(Cl)c(N=[N+]=[N-])c1`, the T/C is 82 % of control under setting [1]; 98 % of control under setting [2]; 97 % of control (dose: 100.0 mg/kg/injection, schedule: Q07DX002 (ip), vehicle: distilled water + Tween-80); 88 % of control (dose: 200.0 mg/kg/injection, schedule: Q07DX002 (ip), vehicle: distilled water + Tween-80); 106 % of control (dose: 400.0 mg/kg/injection, schedule: Q07DX002 (ip), vehicle: distilled water + Tween-80).

In the case of `CCOC(=O)c1ccc(NC(=O)Nc2nncs2)cc1`, the T/C is 194 % of control (dose: 12.5 mg/kg/injection, schedule: Q07DX002 (ip), vehicle: distilled water + Tween-80); 90 % of control under setting [1]; 94 % of control under setting [2].

`CC(O)CCC(=O)c1ccoc1` (centres undefined): the T/C (dose: 0.63 mg/kg/injection, schedule: Q07DX002 (ip), vehicle: saline) was 150 % of control; the T/C (dose: 1.25 mg/kg/injection, schedule: Q03HX006 (ip), vehicle: saline) was 42 % of control; the T/C (dose: 2.5 mg/kg/injection, schedule: Q03HX006 (ip), vehicle: saline) was 64 % of control; the T/C (dose: 2.5 mg/kg/injection, schedule: Q07DX002 (ip), vehicle: saline) is 166 % of control; the T/C (dose: 5.0 mg/kg/injection, schedule: Q03HX006 (ip), vehicle: saline) was 58 % of control; the T/C (dose: 5.0 mg/kg/injection, schedule: Q07DX002 (ip), vehicle: saline) is 150 % of control. Also, the T/C (dose: 10.0 mg/kg/injection, schedule: Q07DX002 (ip), vehicle: saline) is 185 % of control.

For `O=C(O)CC(NC(=O)CP(=O)(O)O)C(=O)O` (centres undefined), the T/C is, setting by setting: (dose: 50.0 mg/kg/injection, schedule: Q07DX003 (ip), vehicle: saline) 95 % of control; (dose: 51.8 mg/kg/injection, schedule: Q01DX004 (ip), vehicle: saline) 102 % of control; (dose: 86.4 mg/kg/injection, schedule: Q01DX004 (ip), vehicle: saline) 75 % of control; (dose: 119.0 mg/kg/injection, schedule: Q01DX009 (ip), vehicle: saline) 34 % of control; (dose: 144.0 mg/kg/injection, schedule: Q01DX004 (ip), vehicle: saline) 12 % of control; (dose: 178.0 mg/kg/injection, schedule: Q01DX009 (ip), vehicle: saline) 12 % of control. Moreover, the T/C reads like this: (dose: 180.0 mg/kg/injection, schedule: Q04DX004 (ip), vehicle: saline) 79 % of control; (dose: 200.0 mg/kg/injection, schedule: Q07DX003 (ip), vehicle: saline) 115 % of control; (dose: 240.0 mg/kg/injection, schedule: Q01DX004 (ip), vehicle: saline) 9 % of control; (dose: 300.0 mg/kg/injection, schedule: Q04DX004 (ip), vehicle: saline) 75 % of control; (dose: 370.0 mg/kg/injection, schedule: Q07DX003 (ip), vehicle: saline) 70 % of control; (dose: 400.0 mg/kg/injection, schedule: Q07DX003 (ip), vehicle: saline) 75 % of control. The T/C was 58 % of control (dose: 500.0 mg/kg/injection, schedule: Q04DX004 (ip), vehicle: saline); 40 % of control (dose: 552.0 mg/kg/injection, schedule: Q07DX003 (ip), vehicle: saline); 21 % of control (dose: 800.0 mg/kg/injection, schedule: Q07DX003 (ip), vehicle: saline).

As for `COc1ccc(C2Oc3cc(OC)ccc3C(=O)C2c2ccccc2)cc1` (centres undefined), the T/C (dose: 43.0 mg/kg/injection, schedule: Q07DX002 (ip), vehicle: other) was 35 % of control; the T/C (dose: 72.0 mg/kg/injection, schedule: Q07DX002 (ip), vehicle: other) is 56 % of control; the T/C (dose: 120.0 mg/kg/injection, schedule: Q07DX002 (ip), vehicle: other) was 41 % of control; the T/C (dose: 200.0 mg/kg/injection, schedule: Q07DX002 (ip), vehicle: other) was 34 % of control; the T/C (dose: 333.33 mg/kg/injection, schedule: Q07DX002 (ip), vehicle: other) is 82 % of control.

For `BrCC[Se]c1ccccc1`, the T/C (dose: 6.25 mg/kg/injection, schedule: Q07DX002 (ip), vehicle: saline with Tween-80) is 158 % of control and 177 % of control; the T/C under setting [3] was 100 % of control and 104 % of control; the T/C under setting [4] was 107 % of control; the T/C under setting [5] was 178 % of control.

On to `Cn1c(=O)c2ncnnc2n(C)c1=O`, for which the T/C was 75 % of control (dose: 3.12 mg/kg/injection, schedule: Q07DX002 (ip), vehicle: Klucel (hydroxypropylcellulose) (HPC)); 84 % of control (dose: 6.25 mg/kg/injection, schedule: Q07DX002 (ip), vehicle: Klucel (hydroxypropylcellulose) (HPC)); 78 % of control (dose: 12.5 mg/kg/injection, schedule: Q07DX002 (ip), vehicle: Klucel (hydroxypropylcellulose) (HPC)); 62 % of control under setting [6].

For `Oc1cc2ccccc2c(-c2c(O)c(O)cc3ccccc23)c1O`, the T/C under setting [3] was 94 % of control; the T/C (dose: 25.0 mg/kg/injection, schedule: Q07DX002 (ip), vehicle: saline with Tween-80) is 119 % of control; the T/C under setting [4] was 114 % of control; the T/C (dose: 100.0 mg/kg/injection, schedule: Q07DX002 (ip), vehicle: saline with Tween-80) is 81 % of control; the T/C under setting [5] was 64 % of control; the T/C under setting [7] is 64 % of control.

With `COc1cc(Cc2nccc3cc(OC)c(OC)cc23)c(C(C)=O)c(OC)c1`, the T/C is, setting by setting: (dose: 10.0 mg/kg/injection, schedule: Q07DX002 (ip), vehicle: suspension in saline) 104 % of control; (dose: 20.0 mg/kg/injection, schedule: Q07DX002 (ip), vehicle: saline) 110 % of control; (dose: 20.0 mg/kg/injection, schedule: Q07DX002 (ip), vehicle: suspension in saline) 103 % of control; (dose: 40.0 mg/kg/injection, schedule: Q07DX002 (ip), vehicle: saline) 107 % of control; (dose: 40.0 mg/kg/injection, schedule: Q07DX002 (ip), vehicle: suspension in saline) 59 % of control; (dose: 80.0 mg/kg/injection, schedule: Q07DX002 (ip), vehicle: saline) 82 % of control. Besides, the T/C by setting is: (dose: 80.0 mg/kg/injection, schedule: Q07DX002 (ip), vehicle: suspension in saline) 81 % of control; (dose: 160.0 mg/kg/injection, schedule: Q07DX002 (ip), vehicle: saline) 96 % of control; (dose: 320.0 mg/kg/injection, schedule: Q07DX002 (ip), vehicle: saline) 74 % of control.

As for `Cc1c2oc3c(C)ccc(C(=O)N[C@@H]4C(=O)N[C@H](C(C)C)C(=O)N5CCC[C@H]5C(=O)N(C)CC(=O)N(C)[C@@H](C(C)C)C(=O)O[C@H]4C)c3nc-2c(C(=O)N[C@@H]2C(=O)N[C@H](C(C)C)C(=O)N3CCC[C@H]3C(=O)N(C)CC(=O)N(C)[C@@H](C(C)C)C(=O)O[C@H]2C)c(N)c1=O` (I: [aThr][dV]P[Sar][NMeV] / II: [aThr][dV]P[Sar][NMeV]; ester I:1-I:C, II:1-II:C; linker I:N-II:N via Actinocin(9to1)), the T/C is, setting by setting: (dose: 100.0 micrograms/kg/injection, schedule: Q07DX002 (ip), vehicle: saline + alcohol) 104 % of control; (dose: 200.0 micrograms/kg/injection, schedule: Q07DX002 (ip), vehicle: saline + alcohol) 77 % of control; (dose: 400.0 micrograms/kg/injection, schedule: Q07DX002 (ip), vehicle: saline + alcohol) 19 % of control.

Consider `CC(=O)Oc1[nH]c(=O)c2cccc3c2c1CCC3`, for which the T/C is, setting by setting: under setting [4], 161 % of control; under setting [5], 118 % of control; under setting [7], 122 % of control; (dose: 1600.0 mg/kg/injection, schedule: Q07DX002 (ip), vehicle: saline with Tween-80) 118 % of control.

With `C[Si](C)(C)OSc1ccccc1[N+](=O)[O-]`, the T/C under setting [6] is 118 % of control; the T/C (dose: 50.0 mg/kg/injection, schedule: Q07DX002 (ip), vehicle: Klucel (hydroxypropylcellulose) (HPC)) is 113 % of control; the T/C (dose: 100.0 mg/kg/injection, schedule: Q07DX002 (ip), vehicle: Klucel (hydroxypropylcellulose) (HPC)) is 110 % of control; the T/C (dose: 800.0 mg/kg/injection, schedule: Q07DX002 (ip), vehicle: Klucel (hydroxypropylcellulose) (HPC)) is 86 % of control.

The record behind these values is PubChem BioAssay AID212 (DTP/NCI, 2004).
